Source: patent US20240365781A1, “SYNERGISTICALLY EFFECTIVE HERBICIDE COMPOSITION COMPRISING PELARGONIC ACID AND FLAZASULFURON” (Belchim Crop Protection NV, priority 2017, published 2024)

Experiments:
Type in all cases: in vivo
Chenopodium album [1] = assay: post-emergence field trial under rows of vines, 150-200 L water/ha (Examples 6-9); details: flazasulfuron 40 g/ha
Source text: (§1) The expected activity of a given combination of two or three herbicides can be calculated as follows according to a calculation method by Colby (cf. COLBY, S. R.: “Calculating synergistic and antagonistic responses of herbicide combinations”, • Weeds 15, pages 20-22, 1967): • If X=% damage by herbicide (A) at an application rate of m g/ha, • Y=% damage by herbicide (B) at an application rate of n g/ha, • E=the expected damage by herbicides (A) and (B) at application rates of m and n […] and, • then for a combination:
(§2) Individual compositions comprising pelargonic acid or flazasulfuron are compared with a herbicide composition according to the invention comprising pelargonic acid and flazasulfuron.
(§3) Herbicidal activity was determined by performing a post-emergence test. […] The corresponding mixture was in the form of a spray solution. Besides, spray solutions of individual compositions comprising pelargonic acid or flazasulfuron were used.
(§4) The spray solution was applied on plants of unwanted vegetation present on fields where perennial crops were grown.
(§5) After 5 to 88 days after application of the spray solution, the degree of damage to the unwanted vegetation is rated in % of plants of unwanted vegetation that were killed. Tests were performed on test fields (field trials).

Bromus oxyodon = assay: as above; details: flazasulfuron 40 g/ha
Source text: as §1, §2, §3, §4, §5

Stellaria media = assay: as above; details: flazasulfuron 40 g/ha
Source text: as §1, §2, §3, §4, §5

Chenopodium album [2] = assay: post-emergence test, field trial (Examples 1-5); details: FT
Source text: as §1, §2
(§6) Herbicidal activity was determined by performing a post-emergence test. […] The corresponding mixture was in the form of a spray liquor. Besides, spray liquors of individual compositions comprising pelargonic acid or flazasulfuron were used.
(§7) Tests were performed on test fields (field trials) or in pots (pot trials).

Echinochloa crusgalli = assay: post-emergence test, field trial (Examples 1-5); details: FT
Source text: as §1, §2, §6, §7

Convolvulus arvensis L. = assay: post-emergence test, field trial (Examples 1-5); details: 3 d, FT; pelargonic acid 5440 g/ha, flazasulfuron 50 g/ha; 8 L/ha
Source text: as §1, §2, §6, §7

Erodium cicuta = assay: post-emergence test, field trial (Examples 1-5); details: 28 d, FT; pelargonic acid 5440 g/ha, flazasulfuron 50 g/ha; 8 L/ha
Source text: as §1, §2, §6, §7

Festuca ovina = assay: post-emergence test, field trial (Examples 1-5); details: FT
Source text: as §1, §2, §6, §7

Plantago major = assay: post-emergence test, field trial (Examples 1-5); details: FT
Source text: as §1, §2, §6, §7

[3] = 7 d, pelargonic acid 10880 g/ha
[4] = 14 d, pelargonic acid 5440 g/ha
[5] = 14 d, pelargonic acid 10880 g/ha
[6] = 14 d, pelargonic acid 6800 g/ha
[7] = 14 d, pelargonic acid 8160 g/ha
[8] = 28 d, pelargonic acid 5440 g/ha
[9] = 28 d, pelargonic acid 6800 g/ha
[10] = 28 d, pelargonic acid 8160 g/ha
[11] = 28 d, pelargonic acid 10880 g/ha
[12] = 3 d, pelargonic acid 10880 g/ha, flazasulfuron 25 g/ha, 16 L/ha
[13] = 3 d, pelargonic acid 10880 g/ha, flazasulfuron 50 g/ha, 16 L/ha
[14] = 3 d, pelargonic acid 21760 g/ha, flazasulfuron 25 g/ha, 32 L/ha
[15] = 3 d, pelargonic acid 21760 g/ha, flazasulfuron 50 g/ha, 32 L/ha
[16] = 7 d, pelargonic acid 10880 g/ha, flazasulfuron 25 g/ha, 16 L/ha
[17] = 7 d, pelargonic acid 10880 g/ha, flazasulfuron 50 g/ha, 16 L/ha
[18] = 7 d, pelargonic acid 21760 g/ha, flazasulfuron 25 g/ha, 32 L/ha
[19] = 7 d, pelargonic acid 21760 g/ha, flazasulfuron 50 g/ha, 32 L/ha
[20] = 13 d, pelargonic acid 10880 g/ha, flazasulfuron 25 g/ha, 16 L/ha
[21] = 13 d, pelargonic acid 10880 g/ha, flazasulfuron 50 g/ha, 16 L/ha
[22] = 13 d, pelargonic acid 21760 g/ha, flazasulfuron 25 g/ha, 32 L/ha
[23] = 13 d, pelargonic acid 21760 g/ha, flazasulfuron 50 g/ha, 32 L/ha
[24] = 23 d, pelargonic acid 10880 g/ha, flazasulfuron 25 g/ha, 16 L/ha
[25] = 23 d, pelargonic acid 21760 g/ha, flazasulfuron 25 g/ha, 32 L/ha
[26] = 23 d, pelargonic acid 21760 g/ha, flazasulfuron 50 g/ha, 32 L/ha
[27] = 30 d, pelargonic acid 10880 g/ha, flazasulfuron 25 g/ha, 16 L/ha
[28] = 30 d, pelargonic acid 10880 g/ha, flazasulfuron 50 g/ha, 16 L/ha
[29] = 30 d, pelargonic acid 21760 g/ha, flazasulfuron 25 g/ha, 32 L/ha
[30] = 30 d, pelargonic acid 21760 g/ha, flazasulfuron 50 g/ha, 32 L/ha
[31] = 38 d, pelargonic acid 10880 g/ha, flazasulfuron 25 g/ha, 16 L/ha
[32] = 38 d, pelargonic acid 10880 g/ha, flazasulfuron 50 g/ha, 16 L/ha
[33] = 38 d, pelargonic acid 21760 g/ha, flazasulfuron 25 g/ha, 32 L/ha
[34] = 38 d, pelargonic acid 21760 g/ha, flazasulfuron 50 g/ha, 32 L/ha
[35] = 23 d, pelargonic acid 10880 g/ha, flazasulfuron 50 g/ha, 16 L/ha

COc1cc(OC)nc(NC(=O)NS(=O)(=O)c2ncccc2C(F)(F)F)n1 [Flazasulfuron, 1-(4,6-dimethoxypyrimidin-2-yl)-3-(3-trifluoromethyl-2-pyridylsulfonyl)urea]
herbicidal effect (Chenopodium album [1]; 7 d, pelargonic acid 5440 g/ha): 23%
herbicidal effect (Chenopodium album [1]; [3]): 23%
herbicidal effect (Chenopodium album [1]; [4]): 25%
herbicidal effect (Chenopodium album [1]; [5]): 25%
herbicidal effect (Chenopodium album [1]; 31 d, pelargonic acid 5440 g/ha): 53%
herbicidal effect (Chenopodium album [1]; 31 d, pelargonic acid 8160 g/ha): 53%
herbicidal effect (Chenopodium album [1]; 31 d, pelargonic acid 10880 g/ha): 53%
herbicidal effect (Chenopodium album [1]; 58 d, pelargonic acid 5440 g/ha): 65%
herbicidal effect (Chenopodium album [1]; 58 d, pelargonic acid 6800 g/ha): 65%
herbicidal effect (Chenopodium album [1]; 58 d, pelargonic acid 8160 g/ha): 65%
herbicidal effect (Chenopodium album [1]; 58 d, pelargonic acid 10880 g/ha): 65%
herbicidal effect (Bromus oxyodon; 7 d, pelargonic acid 5440 g/ha): 28%
herbicidal effect (Bromus oxyodon; 7 d, pelargonic acid 6800 g/ha): 28%
herbicidal effect (Bromus oxyodon; 7 d, pelargonic acid 8160 g/ha): 28%
herbicidal effect (Bromus oxyodon; [3]): 28%
herbicidal effect (Bromus oxyodon; [4]): 46%
herbicidal effect (Bromus oxyodon; [6]): 46%
herbicidal effect (Bromus oxyodon; [7]): 46%
herbicidal effect (Bromus oxyodon; [5]): 46%
herbicidal effect (Bromus oxyodon; [8]): 78%
herbicidal effect (Bromus oxyodon; [9]): 78%
herbicidal effect (Bromus oxyodon; [10]): 78%
herbicidal effect (Bromus oxyodon; [11]): 78%
herbicidal effect (Stellaria media; 7 d, pelargonic acid 8160 g/ha): 30%
herbicidal effect (Stellaria media; [3]): 30%
herbicidal effect (Stellaria media; [4]): 54%
herbicidal effect (Stellaria media; [6]): 54%
herbicidal effect (Stellaria media; [7]): 54%
herbicidal effect (Stellaria media; [5]): 54%
herbicidal effect (Stellaria media; [8]): 86%
herbicidal effect (Stellaria media; [9]): 86%
herbicidal effect (Stellaria media; [10]): 86%
herbicidal effect (Stellaria media; [11]): 86%
herbicidal effect (Chenopodium album [2]; [12]): 10%
herbicidal effect (Chenopodium album [2]; [13]): 15%
herbicidal effect (Chenopodium album [2]; [14]): 10%
herbicidal effect (Chenopodium album [2]; [15]): 15%
herbicidal effect (Chenopodium album [2]; [16]): 40%
herbicidal effect (Chenopodium album [2]; [17]): 0%
herbicidal effect (Chenopodium album [2]; [18]): 40%
herbicidal effect (Chenopodium album [2]; [19]): 0%
herbicidal effect (Chenopodium album [2]; [20]): 15%
herbicidal effect (Chenopodium album [2]; [21]): 0%
herbicidal effect (Chenopodium album [2]; [22]): 15%
herbicidal effect (Chenopodium album [2]; [23]): 0%
herbicidal effect (Chenopodium album [2]; [24]): 20%
herbicidal effect (Chenopodium album [2]; [25]): 20%
herbicidal effect (Chenopodium album [2]; [26]): 0%
herbicidal effect (Chenopodium album [2]; [27]): 20%
herbicidal effect (Chenopodium album [2]; [28]): 0%
herbicidal effect (Chenopodium album [2]; [29]): 20%
herbicidal effect (Chenopodium album [2]; [30]): 0%
herbicidal effect (Chenopodium album [2]; [31]): 20%
herbicidal effect (Chenopodium album [2]; [32]): 0%
herbicidal effect (Chenopodium album [2]; [33]): 20%
herbicidal effect (Chenopodium album [2]; [34]): 0%
herbicidal effect (Echinochloa crusgalli; 3 d, pelargonic acid 5440 g/ha, flazasulfuron 50 g/ha, 8 L/ha): 2.5%
herbicidal effect (Echinochloa crusgalli; [12]): 0%
herbicidal effect (Echinochloa crusgalli; [14]): 0%
herbicidal effect (Echinochloa crusgalli; 7 d, pelargonic acid 5440 g/ha, flazasulfuron 50 g/ha, 8 L/ha): 13.3%
herbicidal effect (Echinochloa crusgalli; [16]): 40%
herbicidal effect (Echinochloa crusgalli; [17]): 20%
herbicidal effect (Echinochloa crusgalli; [19]): 20%
herbicidal effect (Echinochloa crusgalli; 12 d, pelargonic acid 5440 g/ha, flazasulfuron 50 g/ha, 8 L/ha): 37.3%
herbicidal effect (Echinochloa crusgalli; [20]): 40%
herbicidal effect (Echinochloa crusgalli; [21]): 30%
herbicidal effect (Echinochloa crusgalli; [22]): 40%
herbicidal effect (Echinochloa crusgalli; [23]): 30%
herbicidal effect (Echinochloa crusgalli; [24]): 40%
herbicidal effect (Echinochloa crusgalli; [35]): 0%
herbicidal effect (Echinochloa crusgalli; [25]): 40%
herbicidal effect (Echinochloa crusgalli; [26]): 0%
herbicidal effect (Echinochloa crusgalli; 26 d, pelargonic acid 5440 g/ha, flazasulfuron 50 g/ha, 8 L/ha): 99%
herbicidal effect (Echinochloa crusgalli; [27]): 90%
herbicidal effect (Echinochloa crusgalli; [29]): 90%
herbicidal effect (Echinochloa crusgalli; [31]): 90%
herbicidal effect (Echinochloa crusgalli; [33]): 90%
herbicidal effect (Echinochloa crusgalli; 72 d, pelargonic acid 5440 g/ha, flazasulfuron 50 g/ha, 8 L/ha): 96.3%
herbicidal effect (Convolvulus arvensis L.): 0%
herbicidal effect (Erodium cicuta): 95%
herbicidal effect (Festuca ovina; [12]): 0%
herbicidal effect (Festuca ovina; [14]): 0%
herbicidal effect (Festuca ovina; [16]): 30%
herbicidal effect (Festuca ovina; [17]): 20%
herbicidal effect (Festuca ovina; [18]): 30%
herbicidal effect (Festuca ovina; [19]): 20%
herbicidal effect (Festuca ovina; [20]): 30%
herbicidal effect (Festuca ovina; [21]): 20%
herbicidal effect (Festuca ovina; [22]): 30%
herbicidal effect (Festuca ovina; [23]): 20%
herbicidal effect (Festuca ovina; [24]): 75%
herbicidal effect (Festuca ovina; [35]): 0%
herbicidal effect (Festuca ovina; [25]): 75%
herbicidal effect (Festuca ovina; [26]): 0%
herbicidal effect (Festuca ovina; [27]): 75%
herbicidal effect (Festuca ovina; [29]): 75%
herbicidal effect (Festuca ovina; [31]): 80%
herbicidal effect (Festuca ovina; [33]): 80%
herbicidal effect (Plantago major; [12]): 0%
herbicidal effect (Plantago major; [13]): 10%
herbicidal effect (Plantago major; [15]): 10%
herbicidal effect (Plantago major; [16]): 25%
herbicidal effect (Plantago major; [17]): 0%
herbicidal effect (Plantago major; [18]): 25%
herbicidal effect (Plantago major; [19]): 0%
herbicidal effect (Plantago major; [20]): 10%
herbicidal effect (Plantago major; [21]): 20%
herbicidal effect (Plantago major; [22]): 10%
herbicidal effect (Plantago major; [23]): 20%
herbicidal effect (Plantago major; [25]): 10%
herbicidal effect (Plantago major; [26]): 0%
herbicidal effect (Plantago major; [27]): 35%
herbicidal effect (Plantago major; [28]): 0%
herbicidal effect (Plantago major; [29]): 35%
herbicidal effect (Plantago major; [30]): 0%
herbicidal effect (Plantago major; [31]): 10%
herbicidal effect (Plantago major; [32]): 10%
herbicidal effect (Plantago major; [33]): 10%
herbicidal effect (Plantago major; [34]): 10%
